Assay results: publication PMC11859928, “Design, Synthesis, and Antiproliferative Activity of Novel Indole/1,2,4-Triazole Hybrids as Tubulin Polymerization Inhibitors” (Pharmaceuticals, 2025)

Columns and labels:
[1] = system: multi-drug resistant K562R cell line; design: method as in PMID 33038796; settings: cited from earlier work
[2] = system: SGC-7901 cancer cell line; design: method as in PMID 37182330; settings: cited from earlier work
tubulin = target: T1, tubulin (Sus scrofa, UniProt P02550+P02554); test: Tubulin polymerization inhibitory assay; format: biochemical
T1 construct: purchased Cytoskeleton Inc., Denver, CO, USA
Source text: The substances’ effects on tubulin polymerization were examined using the Tubulin Polymerization Assay Kit (Cytoskeleton Inc., Denver, CO, USA) according to the supplier’s instructions, with details described in Appendix A..
The activity of compounds on tubulin polymerization was investigated using the Tubulin Polymerization Assay Kit (Cytoskeleton Inc., Denver, CO, USA), which works via fluorescent reporter enhancement. […] Docetaxel and vincristine (Apoteket AB, Stockholm, Sweden) served as positive stabilizing and destabilizing controls. Both were used at a 3 µM concentration in PBS.

T1 sequence (P02554 whole entry): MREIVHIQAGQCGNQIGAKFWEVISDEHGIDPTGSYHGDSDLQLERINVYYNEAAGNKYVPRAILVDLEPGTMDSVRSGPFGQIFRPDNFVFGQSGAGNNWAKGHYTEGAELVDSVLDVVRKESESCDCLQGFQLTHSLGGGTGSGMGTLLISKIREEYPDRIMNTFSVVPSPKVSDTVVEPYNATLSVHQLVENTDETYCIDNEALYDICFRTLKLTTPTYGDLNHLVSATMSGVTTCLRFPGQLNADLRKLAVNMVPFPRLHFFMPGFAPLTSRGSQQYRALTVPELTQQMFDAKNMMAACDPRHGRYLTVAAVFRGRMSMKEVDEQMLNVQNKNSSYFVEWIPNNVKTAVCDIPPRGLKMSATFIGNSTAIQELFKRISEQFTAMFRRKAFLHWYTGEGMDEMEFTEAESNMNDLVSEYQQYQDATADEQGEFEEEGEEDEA
T1 sequence (P02550 whole entry): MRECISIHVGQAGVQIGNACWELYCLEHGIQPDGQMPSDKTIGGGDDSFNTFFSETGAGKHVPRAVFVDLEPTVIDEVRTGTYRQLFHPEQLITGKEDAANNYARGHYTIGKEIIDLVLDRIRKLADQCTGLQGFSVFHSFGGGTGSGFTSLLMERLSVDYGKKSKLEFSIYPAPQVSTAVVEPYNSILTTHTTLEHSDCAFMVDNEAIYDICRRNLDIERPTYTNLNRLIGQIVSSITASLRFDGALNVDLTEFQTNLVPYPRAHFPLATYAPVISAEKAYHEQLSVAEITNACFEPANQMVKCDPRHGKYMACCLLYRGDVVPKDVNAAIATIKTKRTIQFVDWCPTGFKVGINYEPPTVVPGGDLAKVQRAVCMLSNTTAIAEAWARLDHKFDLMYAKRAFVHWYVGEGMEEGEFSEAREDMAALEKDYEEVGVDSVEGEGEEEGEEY

Cc1cc(-c2cccc(-c3c[nH]c4ccccc34)n2)c2ccccc2n1 [Compound III]
antiproliferative potency, times more effective than CA-4 [1]: 12 times
antiproliferative potency, times more effective than isoCA-4 [1]: 1.5 times

COc1cc(-c2nc3scc(-c4cc(Cl)cc(Cl)c4)n3n2)cc(OC)c1OC [IV]
IC50 [2]: 210 nM

COc1ccc(/C=C\c2cc(OC)c(OC)c(OC)c2)cc1O [CA-4, combretastatin A-4, reference compound]
%inhibition (tubulin; conc 0.01 (unit not given; IC50 from this curve in µg/ml)): 8.7%
%inhibition (tubulin; conc 0.1 (unit not given; IC50 from this curve in µg/ml)): 21.2%
%inhibition (tubulin; conc 1 (unit not given; IC50 from this curve in µg/ml)): 34.9%
%inhibition (tubulin; conc 10 (unit not given; IC50 from this curve in µg/ml)): 59%
%inhibition (tubulin; conc 100 (unit not given; IC50 from this curve in µg/ml)): 84.2%
